According to patent US10407467B2, “Polymyxin derivatives and their use in combination therapy together with different antibiotics” (priority 2013, dated 2019):
Structures can show the parent of a compound that is named as a salt. Where two headings read alike, the source gives them in different places. Numbered stars: 1 amine (or outer) side, 2 acyl side, 3 side chain; on linkers, the order of the positions; unused ones are H or OH. Bridge positions count the residues as written; N and C are the ends. Square brackets hold non-standard residues; d marks the D form. Peptide text beside a SMILES is read from it. * marks the point of attachment. ξ: configuration not given here. Acetyl(2-(piperazin-1-yl)) = O=C(CN1CCNCC1)*; ξβ3hPhg = O=C(CC(N[*:1])c1ccccc1)[*:2]; Thr(3ξ) = CC(O)[C@H](N)C(=O)O; X10 = NC1(CC(=O)*)CCCCC1; Dab = NCC[C@H](N)C(=O)O; Inp = O=C(O)C1CCNCC1

Tests used:
[1] = test system: Escherichia coli; test: MIC, sole activity (no second agent); assay type: cell-based; conditions: in the absence of Rifampicin; for MIC E. coli ATCC25922: strain ATCC25922; for MIC E. coli NCTC9001: strain NCTC9001
Method in brief: (§1)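 First, isolated colonies grown 18-24 hours on Mueller-Hinton agar were suspended to 0.5 McFarland; next, up to four strains per pathogen were tested in duplicate in cation-adjusted MHB; finally, the lower concordant value or modal repeat value was reported against Polymyxin B.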

[2] = test system: Acinetobacter baumannii; test: MIC, sole activity (no second agent); assay type: cell-based; conditions: in the absence of Rifampicin; for MIC A. baumannii ATCC13424: strain ATCC13424; for MIC A. baumannii CCUG57249: strain CCUG 57249
Method in brief: as §1

[3] = test system: Klebsiella pneumoniae; test: MIC, sole activity (no second agent); assay type: cell-based; conditions: in the absence of Rifampicin; for MIC K. pneumoniae ATCC 4352: strain ATCC 4352; for MIC K. pneumoniae CCUG-59348: strain CCUG-59348; for MIC K. pneumoniae NCTC-13438: strain NCTC-13438; for MIC K. pneumoniae ATCC-BAA2146: strain ATCC-BAA2146
Method in brief: as §1

[4] = test system: Pseudomonas aeruginosa; test: MIC, sole activity (no second agent); assay type: cell-based; conditions: in the absence of Rifampicin; for MIC P. aeruginosa ATCC-47: strain ATCC-47; for MIC P. aeruginosa CCUG 59626: strain CCUG 59626
Method in brief: as §1

[5] = test system: P. aeruginosa ATCC 27853; conditions: for effect on thigh burdens: 2 or 4 mg/kg IV three times at 1, 3.5 and 6 hours post infection; for Log reduction from vehicle (CFU/g): ATCC 27853, in vivo, iv
[6] = test system: Escherichia coli; test: MIC, compound in combination with a second agent (broth microdilution); assay type: cell-based; conditions: 1:1 (wt:wt) combination with Rifampicin, MIC = total drug concentration; for MIC E. coli ATCC25922: strain ATCC25922; for MIC E. coli NCTC9001: strain NCTC9001
Method in brief: (§2)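 Susceptibility was tested on up to four strains of each pathogen with the compound paired 1:1 by weight alongside another antibacterial. Values count both components together and use the lower duplicate if replicates agreed within 2-fold.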

[7] = test system: Acinetobacter baumannii; test: as above; assay type: cell-based; conditions: 1:1 (wt:wt) combination with Rifampicin, MIC = total drug concentration; for MIC A. baumannii CCUG57249: strain CCUG57249; for MIC A. baumannii NCTC 13424: strain NCTC 13424; for MIC A. baumannii ATCC BAA-747: strain ATCC BAA-747; for MIC A. baumannii NCTC 13423: strain NCTC 13423
Method in brief: as §2

[8] = test system: Klebsiella pneumoniae; test: as above; assay type: cell-based; conditions: 1:1 (wt:wt) combination with Rifampicin, MIC = total drug concentration; for MIC K. pneumoniae ATCC 4352: strain ATCC 4352; for MIC K. pneumoniae CCUG-59348: strain CCUG-59348; for MIC K. pneumoniae NCTC 13438: strain NCTC 13438; for MIC K. pneumoniae ATCC-BAA-2146: strain ATCC-BAA-2146
Method in brief: as §2

[9] = test system: Pseudomonas aeruginosa; test: as above; assay type: cell-based; conditions: 1:1 (wt:wt) combination with Rifampicin, MIC = total drug concentration; for MIC P. aeruginosa ATCC 27853: strain ATCC 27853; for MIC P. aeruginosa ATCC-47: strain ATCC-47; for MIC P. aeruginosa CCUG 59626: strain CCUG 59626; for MIC P. aeruginosa ATCC CRM-9027: strain ATCC CRM-9027
Method in brief: as §2

Row | Compound | MIC A. baumannii ATCC13424 [2] [micrograms/mL] | MIC A. baumannii CCUG57249 [2] [micrograms/mL] | MIC K. pneumoniae CCUG-59348 [3] [micrograms/mL] | MIC P. aeruginosa ATCC-47 [4] [micrograms/mL] | MIC P. aeruginosa CCUG 59626 [4] [micrograms/mL] | effect on thigh burdens [5] | Log reduction from vehicle (CFU/g) ([5]; 2 mg/kg, 6 h) [log CFU/g] | Log reduction from vehicle (CFU/g) ([5]; 4 mg/kg, 6 h) [log CFU/g] | MIC E. coli ATCC25922 [6] [micrograms/mL] | MIC A. baumannii CCUG57249 [7] [micrograms/mL] | MIC A. baumannii NCTC 13424 [7] [micrograms/mL] | MIC K. pneumoniae ATCC 4352 [8] [micrograms/mL] | MIC K. pneumoniae CCUG-59348 [8] [micrograms/mL] | MIC P. aeruginosa ATCC 27853 [9] [micrograms/mL] | MIC P. aeruginosa ATCC-47 [9] [micrograms/mL] | MIC P. aeruginosa CCUG 59626 [9] [micrograms/mL] | MIC A. baumannii ATCC BAA-747 [7] [micrograms/mL] | MIC A. baumannii NCTC 13423 [7] [micrograms/mL] | MIC K. pneumoniae ATCC-BAA-2146 [8] [micrograms/mL] | MIC P. aeruginosa ATCC CRM-9027 [9] [micrograms/mL] | other results
1 | CC(C)C[C@@H]1NC(=O)[C@@H](Cc2ccccc2)NC(=O)[C@H](CCN)NC(=O)[C@@H](NC(=O)[C@H](CCN)NC(=O)[C@@H](NC(=O)C(O)C2CCCCC2)C(C)O)CCNC(=O)[C@H](C(C)O)NC(=O)[C@H](CCN)NC(=O)[C@H](CCN)NC1=O (mixture of isomers) [Example 27, 2-(RS)-(2-Hydroxy-2-cyclohexyl)ethanoyl polymyxin B nonapeptide] | 4 | 4 | >8 | 2 | 0.25 | did not reduce thigh burdens significantly | 0.24 | −0.58 | 0.25 | 0.5 | 0.5 | 0.125 | 2 | 0.25 | 0.5 | 0.5 |  |  |  |  | MIC E. coli ATCC25922 [1]: 2 micrograms/mL; MIC K. pneumoniae ATCC 4352 [3]: 2 micrograms/mL; MIC K. pneumoniae NCTC-13438 [3]: >8 micrograms/mL; MIC P. aeruginosa ATCC 27853 ([4]; strain ATCC27853): 0.125 micrograms/mL; MIC K. pneumoniae NCTC 13438 [8]: 0.5 micrograms/mL
2 | CC(C)C[C@@H]1NC(=O)[C@@H](Cc2ccccc2)NC(=O)[C@H](CCN)NC(=O)[C@@H](NC(=O)[C@H](CCN)NC(=O)[C@@H](NC(=O)CC(N)c2ccccc2)C(C)O)CCNC(=O)[C@H](C(C)O)NC(=O)[C@H](CCN)NC(=O)[C@H](CCN)NC1=O (stereo partly drawn) [Example 28, [3-(R,S)-3-Amino-3-phenylpropanoyl] Polymyxin B nonapeptide] (ξβ3hPhg-[Thr(3ξ)][Dab][Dab][Dab][dF]L[Dab][Dab][Thr(3ξ)]; lactam 3-C) | 1 | 1 | >32 | 1 | 0.5 |  |  |  | 0.125 | 0.125 | 0.125 |  | 2 | 0.125 | 0.5 | 0.25 | 0.125 | ≤0.06 | 0.5 | 0.5 | MIC E. coli NCTC9001 [1]: 32 micrograms/mL; MIC K. pneumoniae ATCC-BAA2146 [3]: 32 micrograms/mL; MIC K. pneumoniae NCTC-13438 [3]: 32 micrograms/mL; Log reduction from vehicle (CFU/g) ([5]; 2 mg/kg, 9 h): −0.38 log CFU/g; Log reduction from vehicle (CFU/g) ([5]; 4 mg/kg, 9 h): 0.20 log CFU/g; MIC K. pneumoniae NCTC 13438 [8]: 0.25 micrograms/mL
3 | CC(C)C[C@@H]1NC(=O)[C@@H](Cc2ccccc2)NC(=O)[C@H](CCN)NC(=O)[C@@H](NC(=O)[C@H](CCN)NC(=O)[C@@H](NC(=O)CC2(N)CCCCC2)C(C)O)CCNC(=O)[C@H](C(C)O)NC(=O)[C@H](CCN)NC(=O)[C@H](CCN)NC1=O (stereo partly shown) [Example 42, 2-(1-aminocyclohexyl) ethanoyl Polymyxin B nonapeptide TFA salt] (X10-[Thr(3ξ)][Dab][Dab][Dab][dF]L[Dab][Dab][Thr(3ξ)]; lactam 3-C) |  |  |  |  |  | did not reduce thigh burdens significantly | −0.03 | −0.28 | ≤0.06 | ≤0.06 | ≤0.06 |  | 4 | 0.125 | ≤0.06 | 0.125 | 0.125 | ≤0.06 | 0.125 | 0.25 | MIC E. coli NCTC9001 [6]: 0.125 micrograms/mL
4 | CC(C)C[C@@H]1NC(=O)[C@@H](Cc2ccccc2)NC(=O)[C@H](CCN)NC(=O)[C@@H](NC(=O)[C@H](CCCCN)NC(=O)[C@@H](NC(=O)C2CCNCC2)C(C)O)CCNC(=O)[C@H](C(C)O)NC(=O)[C@H](CCN)NC(=O)[C@H](CCN)NC1=O (stereo partly drawn) [Example 51, Piperidin-4-yl carbonyl-L-Thr-L-Lys-polymyxin B heptapeptide, TFA salt] (H-[Inp][Thr(3ξ)]K[Dab][Dab][dF]L[Dab][Dab][Thr(3ξ)]; lactam 4-C) | 4 | 4 | >32 | 32 | 0.25 |  |  |  | 0.125 | ≤0.06 |  | 0.125 | 4 | 0.25 | 0.5 | 0.5 | ≤0.06 | 0.125 | 1 | 0.25 | MIC E. coli ATCC25922 [1]: >32 micrograms/mL; MIC E. coli NCTC9001 [1]: >32 micrograms/mL; MIC A. baumannii ATCCBAA-747 ([2]; strain ATCCBAA-747): 4 micrograms/mL; MIC A. baumannii NCTC 13423 ([2]; strain NCTC13423): 8 micrograms/mL; MIC K. pneumoniae ATCC 4352 [3]: 2 micrograms/mL; MIC K. pneumoniae ATCC-BAA2146 [3]: >32 micrograms/mL; MIC P. aeruginosa ATCCCRM-9027 ([4]; strain ATCCCRM-9027): 0.125 micrograms/mL; MIC E. coli NCTC9001 [6]: 0.5 micrograms/mL
5 | CC(C)C[C@@H]1NC(=O)[C@@H](Cc2ccccc2)NC(=O)[C@H](CCN)NC(=O)[C@@H](NC(=O)[C@H](CCN)NC(=O)[C@@H](NC(=O)CN2CCNCC2)C(C)O)CCNC(=O)[C@H](C(C)O)NC(=O)[C@H](CCN)NC(=O)[C@H](CCN)NC1=O (stereo partly shown) [Example 52, (1-piperazine) ethanoyl polymyxin B nonapeptide, trifluoroacetate salt] ({Acetyl(2-(piperazin-1-yl))}-[Thr(3ξ)][Dab][Dab][Dab][dF]L[Dab][Dab][Thr(3ξ)]; lactam 3-C) |  |  |  |  |  | did not reduce thigh burdens significantly | −0.14 | −0.18 | ≤0.06 |  |  | 0.125 | 8 | 0.125 |  | 0.125 |  |  | 1 |  | 
